In test [1] the test system is micturition interval. Briefly: 5-HT1A receptor agonist (8-OH-DPAT)-induced model of OAB, cystometry. Type of test: in vivo, female SD rats. The conditions noted are these: intravenous infusion 0.06 mg/kg/h, female SD rats.
Description: Catheter implantations and cystometric investigations were performed based on the reported method [14]. Briefly, on the day before the cystometric experiment, female SD rats were initially anesthetized with pentobarbital (50 mg/kg ip). Catheters were inserted into the femoral vein, the dome of the stomach and the dome of the bladder. In the cystometric study, the bladder catheter was connected to an infusion pump and a pressure transducer (DX-312; Nihon Kohden Co., Tokyo, Japan) by three-way stopcock. Saline was infused into the bladder and femoral vein. After bladder pressure was stabilized, 8-OH-DPAT (0.06 mg/kg/h) was infused into the femoral vein instead of saline. Bladder pressure was monitored with a pressure transducer and a pressure amplifier (AP-601G; Nihon Kohden), and recorded on a pen recorder (WT-645G; Nihon Kohden). The following three micturition intervals (i.e., intervals between consecutive peaks of bladder pressure induced at the time of bladder content evacuation) were obtained: (1) basal micturition interval (intervals before 8-OH-DPAT administration), (2) pre-administration micturition interval, (intervals immediately before administration of E2110 or vehicle), and (3) post-administration micturition interval (intervals observed between 1 and 2 hr after administration of E2110 or vehicle). […] E2110 (0.03, 0.1 or 0.3 mg/kg) or vehicle was administered to four groups of eight conscious rats orally.
Data are expressed as mean ± standard error of mean (S.E.M). In the pharmacological study, the statistical significance of differences between the vehicle- and E2110-treated groups was tested using one-way analysis of variance (ANOVA) followed by Dunnett’s multiple comparison test. A probability (p) value of <0.05 (two-sided) was considered statistically significant. All statistical analyses were performed using the SAS software package version 8.1 or 8.2 (SAS Institute Japan Ltd., Tokyo, Japan).
Test [2] concerns the target T1, rat 5-HT1A receptor (Rattus norvegicus, UniProt P19327).
T1 construct: from tissue; host or cells: rat hippocampus, membrane (microsomal) fraction
T1 sequence (P19327 1-422): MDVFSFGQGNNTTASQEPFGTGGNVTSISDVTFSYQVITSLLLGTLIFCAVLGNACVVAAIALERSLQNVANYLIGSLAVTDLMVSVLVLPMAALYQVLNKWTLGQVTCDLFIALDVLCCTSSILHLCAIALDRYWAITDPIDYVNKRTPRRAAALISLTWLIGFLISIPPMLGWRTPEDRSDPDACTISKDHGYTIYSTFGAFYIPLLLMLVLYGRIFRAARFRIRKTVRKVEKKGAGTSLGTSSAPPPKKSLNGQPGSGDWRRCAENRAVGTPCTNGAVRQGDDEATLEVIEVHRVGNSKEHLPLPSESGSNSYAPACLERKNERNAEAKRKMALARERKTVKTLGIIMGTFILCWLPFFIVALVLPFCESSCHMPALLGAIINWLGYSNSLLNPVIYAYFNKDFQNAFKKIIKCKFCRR
Briefly: Binding assay in rat hippocampal membrane fraction ([3H]MPPF). The conditions noted are these: saturation binding, rat hippocampal membranes, Scatchard plot.
Description: Rat hippocampal samples were weighed, homogenized in 10-fold volume of 50 mM Tris-HCl (pH 7.4) on an ice bath, and centrifuged (50,000×g, 4°C, 20 min). The precipitate was further homogenized in a 10-fold volume of 50 mM Tris-HCl (pH 7.4) on an ice bath and centrifuged (50,000×g, 4°C, 20 min). The obtained precipitate was homogenized in 50 mM Tris-HCl (pH 7.4) to render a concentration of 100 mg tissue eq./mL. The obtained microsomal fraction was stored as a receptor stock solution at -80°C until use. […] MPPF in a total 1-ml reaction volume at 25°C for 60 min. The reaction was terminated, and bound radioactivity was separated from free radioligands by filtering and washing three times with 3 ml of 50 mM Tris-HCl (pH 7.4). The radioactivity content of the filters in 5 ml of liquid scintillator (Atomlight; PerkinElmer) was counted by TR2500 scintillation counter (PerkinElmer Life & Analytical Sciences). The specific binding was determined as the difference between total and nonspecific binding, measured in the absence and presence of 100 µM 5-HT. Data were analyzed by Scatchard plot to estimate equilibrium constant (Kd) values. For the competition experiments, binding assays were carried out using 0.3 nM [^3H] […] MPPF according to the following equation:
Ki=IC50/1+[radioligand]/Kd (1)
where [radioligand] means the concentration of the radioligand used.

The test system of test [3] is 5-HT1A. The conditions noted are these: hippocampus, PET, isoflurane-anesthetized rats; cited from earlier work.
The test system of test [4] is 5-HT1A. The conditions noted are these: hippocampal, unanesthetized rats; cited from earlier work.

Regarding `CCCN(CCC)C1CCc2cccc(O)c2C1` (stereo not shown) [8-OH-DPAT, 8-hydroxy-2-(di-n-propylamino)-tetralin, reference compound], the “micturition interval versus basal level” value in test [1] is listed as “markedly decreased”.

`COc1ccccc1N1CCN(CCN(C(=O)c2ccc(F)cc2)c2ccccn2)CC1` [[^3H] MPPF, [^3H] 2'-methoxyphenyl-(N-2'-pyridinyl)-p-fluoro-benzamidoethyipiperazine, reference compound]: the Kd (as a rule, a measure of binding affinity in units of concentration) in test [2] is 0.92 nM.

For `CC(C)NCC(O)COc1cccc2[nH]ccc12` (stereo not shown) [pindolol], the “in vivo ED50 for 5-HT1A RO” value in test [3] is recorded as 5.6 mg/kg. Besides, the “ED50 for 5-HT1A RO, ex vivo autoradiography” value in test [4] is reported as 8.5 mg/kg.

The record behind these values is PMC3781034, “A Small-Animal Pharmacokinetic/Pharmacodynamic PET Study of Central Serotonin 1A Receptor Occupancy by a Potential Therapeutic Agent for Overactive Bladder” (PLoS ONE, 2013).
